US9045474B2, “Compounds and compositions for mitigating tissue damage and lethality” (The Regents of the University of California, priority 2010, dated 2015)
“And” between values parts separate entries of the source, which are not always exact repeats. Equal entries are not always repeated. “Also recorded” adds a separate entry of the source.

Legend:
[1] = tested on: primary human keratinocytes; test: Senescence of primary keratinocytes in co-culture; type: cell-based
primary keratinocytes = test: Proliferation of primary keratinocytes after 5Gy irradiation; type: cell-based, human; details: 5 uM, cultured 11 days
Procedure: After the IR the cells were treated with Yel002 and cultured for 11 days.

DBA/2 Mice = test: Radiation-induced leukemia model; type: in vivo, mouse
Procedure: DBA/2 Mice (15/group) were irradiated with ^60Co (3.5 Gy, 0.6 Gy/min) to induce leukemia. One group received no drug, another group of mice were injected s.c. with Yel001 or Yel002 (25 mg/kg) with 5 injections for 5 days. Leukemogenesis was monitored for 90 days. Blood was drawn at days −1, 21, 42, and 63 to monitor for leukemia every 21 days to monitor for leukemia development using WBCs and differentials. This leukemia model takes advantage of non-targeted radiation effects, which are important to the carcinogenic process. This model has a shorter latency period to gamma radiation-induced leukemia (latency to 50% leukemic population: 107 days) than other murine leukemia models such as CBA mouse (399 days: 50% leukemic population). DBA/2 mice were irradiated with 3.5 Gy (^60Co 0.60 Gy/min) and then injected intravenously with (5×10^6) FDC-P1 cells. Animals were then monitored 5×/weekly for 10 weeks-post-injection and then daily after 10 weeks-post-injection until leukemia development and/or euthanasia. After the animal has been determined to be leukemic using hematological parameters, it is euthanized and a necropsy is conducted to definitively determine a conclusive diagnosis of leukemia. Control animals not developing leukemia are assessed at 270 days post experiment initiation. At that time they are euthanized and necropsied.

C3H mice [2] = test: Toxicity experiments in C3H mice; type: in vivo, mouse; details: 150 mg/kg, 75 mg/kg and 5 mg/kg; 120 days following the injections
Procedure: Having seen no adverse effects of the chemicals alone on mammalian cell models we performed a preliminary toxicity study on a group of C3H mice. […] In a pilot reproductive toxicity study, 12, week old female mice were paired up with 6 week old male mice and checked daily for the presence of a characteristic “plug” in the female vaginal canal as an indication of mating. As soon as the mating has occurred, males were removed and the females were treated weekly with 75 mg/kg s.c. throughout the gestation period and until the pups were weaned off (8 week treatment course). After weaning, treatment of the offspring was initiated at the same 75 mg/kg s.c. weekly dose. Controls were injected s.c. on the same schedule with the carrier (1N saline). Five treated and five control females gave birth to the same average number of pups per litter (n=6) without any detectable toxicities to the other. 3 litters of each treated and control groups survived to continue the study. No pathologies, toxicities nor adverse effects were observed. There are no developmental or teratogenic deficiencies in mice, average weights (21 g) are the same in both groups also.

[3] = tested on: yeast DEL tester strain RS112; test: DEL assay, UV radiation-induced damage; type: cell-based, Saccharomyces cerevisiae
Procedure: DEL tester strain was irradiated with 4000 J/m^2 in the ultraviolet range and treated with Yel001 or Yel002 at 60 minutes at the concentration of 15 uM.

C3H mice [4] = test: Recovery of the hematopoietic system after 6 Gy irradiation; type: in vivo, mouse
Excerpt: WBC-total white blood cells (K/uL), NE—neutrophils (K/uL), and LY—lymphocytes (K/uL). With 1—tail, Student's t-Student's t-test, WBC and NE, along with monocytes, eosinophils, and basophils (data not shown) are p<0.05.
RBC— red blood cells (M/uL), HB-hemoglobin (g/dL), and HCT-hematocrit (%).

DEL RS112 tester strain = test: DEL assay, damage by chemical carcinogen MMS; type: cell-based, Saccharomyces cerevisiae; details: 15 uM, 1 hrs after exposure to MMS
Excerpt: A DEL assay, described above, is used for assessing mitigation of damage induced by chemical carcinogens by compounds of invention.
Tests in this example show administration of Yel001 and Yel002 confers reduction against chemical carcinogen Methyl methanesulfonate (MMS) in vitro.
Reduction of cytotoxicity and genotoxicity with Yel002 is p<0.007 and p<0.04 restively; p-values for Yel001 are 0.0007 (genotoxicity) and 0.1 for cytotoxicity.

[5] = tested on: RS112 strain of S. cerevisiae; test: Classical DEL plating assay, radioprotection at 2000Gy irradiation; type: cell-based, Saccharomyces cerevisiae
Procedure: All DEL assays utilize the established methodology of “recombination” (deletion of the interruption segment and consequent end joining of the adjacent sequences) of a disrupted histidine gene that renders yeast cells exposed to radiation capable of growing on media lacking this amino acid. In the classical DEL assay radiation sensitive RS112 strain of S. cerevisiae is added to the compounds of interest suspended in complete media, incubated for 2 hrs, and irradiated at 2000Gy. The cells are then plated onto full (+13) and lacking histidine (−His) agar plates. After incubation the colonies are scored and recombination events are calculated. The efficacy of the compound is evaluated as a reduced fraction of DEL recombinations in comparison to that of irradiated controls without treatment. Radioprotectors decrease the frequency of such recombination frequencies after radiation exposure.
A plasmid with an internal fragment of the HIS3 gene, which is responsible for histidine synthesis in yeast, without which cells cannot survive in media lacking histidine, has been integrated at the HIS3 locus, yielding an integrative disruption of the HIS3 gene (Schiestl, R. H., et al., Genetics, 1988. 119(2): p. 237-47). […]

C3H mice [6] = test: Mitigation of radiation-induced lethality in C3H mice (8Gy, LD100/30)
Procedure: Radiomitigation studies were conduced by pre-treating C3H mice with the compounds of interest at as concentration of 75 mg/kg and at 24 hrs and 1 hr before an 8 Gy exposure. On a 5×24 mitigation treatment protocol mice were first lethally irradiated with 8 Gy and 24 hrs later received the first subcutaneous injection with the compound suspension with subsequent injections at 48, 72, 96, and 120 hrs. The concentration of the compound in the suspension was 75 mg/kg carrier with either 1N saline or phosphate buffer solution (PBS).
C3H mice in the mitigation experiment were irradiated with 8Gy and then injected with 75 mg/kg 1 hr post exposure and then again 25 hrs post exposure.

COc1ccc2cc(-c3nc4ccc(C)cn4c3NCc3ccco3)c(=O)[nH]c2c1 [Yel002]
doubling time of the cells [1]: extended the doubling time
progression into senescence ([1]; 5 uM): decreased progression of cells into senescence; also recorded: decreases the progression into senescence
proliferation as compared to controls (primary keratinocytes): increased proliferation
first development of leukemia (DBA/2 Mice; 3.5 Gy, 25 mg/kg s.c., no drug also within 42 days): 42 days
mice exhibiting leukemia (DBA/2 Mice; Day 94, 3.5 Gy, 25 mg/kg s.c. 5 injections, irradiated controls 30%): 10%
leukemia frequency (DBA/2 Mice; Day 270, irradiated population 90%): 40%
latency to leukemia development (DBA/2 Mice; FIG. 17): increased latency to leukemia development
frequency of radiation induced and/or spontaneous cancer (DBA/2 Mice; FIG. 18): effective for reducing the frequency of radiation induced and spontaneous cancer
adverse physiological or behavioral effects (C3H mice [2]): did not show any adverse physiological nor behavioral adverse effects
UV genotoxicity and cytotoxicity ([3]; 15 uM, P<0.05): reduces cell death and genotoxicity; also recorded: significantly reduces genotoxicity and cytotoxicity
survival ([3]; 4000 J/m^2 UV, 15 uM at 60 minutes, untreated 0.64%): 1.84%
recovery of total white blood cells, red blood cells, and platelets (C3H mice [4]; 75 mg/kg s.c. 5×24): increases the recovery
recovery of the hematopoietic system (C3H mice [4]; 75 mg/kg s.c. 5×24 hr schedule): promote the recovery of the hematopoietic system
genotoxicity and cytotoxicity by MMS (DEL RS112 tester strain): reduction in genotoxicity and cytotoxicity; also recorded: can be mitigated
radioprotector characteristics (genotoxicity and cytotoxicity protection) [5]: radioprotector characteristics
mitigation efficacy (C3H mice [6]; 8Gy, 75 mg/kg 1.25 protocol): show activity
mice survived LD100/30 irradiation (C3H mice [6]; 8Gy, 75 mg/kg at 1 hr and 25 hrs post exposure, past 30 days, first small study): 67%
survival at 30 days (C3H mice [6]; 8Gy, 75 mg/kg s.c. at 24, 48, 72, 96, 120 hrs (5×24)): 100% and 75%
survival at 30 days (C3H mice [6]; 8Gy, 75 mg/kg s.c. at 24, 48, 72, 96, 120 hrs (5×24), listed as Yel2): 100%
survival at 30 days (C3H mice [6]; 8Gy, 75 mg/kg s.c. at 1 hr and 25 hrs (1.25 schedule)): 88%
percentage of survivors (C3H mice [6]; 8Gy, both protocols, 252 days post irradiation): 40%
animals still alive beyond 30 day window (C3H mice [6]; 8Gy, both protocols, +292 days): 40%
survival, oral (gavage) administration (C3H mice [6]; 8Gy, oral gavage in saline, 5×24 schedule): 33%
dose modifying factor (DMF) (C3H mice [6]; at LD50/30, 7Gy to 9.1 Gy, 75 mg/kg 5×24 s.c.): 1.15
